# Several values for one entry are separate records, joined by “and”; a condition that tells them apart may be missing. Equal values may be shown once. Activity calls are given as the source filed them.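 How the source made its calls: active means compounds with IC50 below 20 µM; inactive means the rest.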
# Biological target: Type-1 angiotensin II receptor (Homo sapiens) (UniProt P30556)
# Assay: AGTR1 antagonism selectivity check – cell-based, CHO-K1 PathHunter, luminescence, selectivity assay for APJ antagonist project, SAR follow-up (AID 488810);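 further: agonist challenge with angiotensin II at 50 nM final near its EC80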
# Conditions: CHO-K1 AGTR1 PathHunter beta-arrestin, antagonist mode
# Sequence of Type-1 angiotensin II receptor (Homo sapiens) (P30556 whole entry, looked up): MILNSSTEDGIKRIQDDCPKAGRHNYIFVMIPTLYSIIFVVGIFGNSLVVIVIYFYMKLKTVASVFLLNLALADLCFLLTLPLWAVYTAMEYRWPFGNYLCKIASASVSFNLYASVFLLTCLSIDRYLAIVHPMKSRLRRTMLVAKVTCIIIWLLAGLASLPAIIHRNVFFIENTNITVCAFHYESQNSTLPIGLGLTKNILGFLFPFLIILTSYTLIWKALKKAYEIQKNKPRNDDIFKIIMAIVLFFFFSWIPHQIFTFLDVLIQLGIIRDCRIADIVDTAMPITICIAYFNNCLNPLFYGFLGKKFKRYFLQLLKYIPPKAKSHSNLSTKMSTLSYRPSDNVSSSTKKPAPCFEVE
row,SMILES,IC50
1,Cc1cccc(C(=O)Oc2coc(CSc3nccc(C)n3)cc2=O)c1,> 79 µM (inactive)
2,Cc1cc(C)nc(NNS(=O)(=O)c2c(F)cc(F)cc2Br)n1,5.01 µM
3,O=C(O)CN1C(=O)C(=O)c2ccccc21,> 79 µM (inactive)
4,Cc1c(O)ccc2c1OC1(CC2c2ccccc2Cl)CC(C)(C)NC(=O)N1 (stereo not given),> 79 µM (inactive)
5,CCC1CCCCN1CC(=O)c1ccc(OC(F)F)cc1 (stereo not given),inactive
6,O=C(Oc1coc(CSc2ncccn2)cc1=O)c1cc([N+](=O)[O-])ccc1Cl,inactive
7,Cc1ccccc1NCC(O)c1ccc(Cl)cc1 (stereo not given),> 79 µM (inactive)
8,O=c1cc(CCl)occ1O,> 79 µM (inactive)
9,Cc1ccnc(SCc2cc(=O)c(OC(=O)c3ccccc3)co2)n1,> 79 µM (inactive)
10,C=CCOc1ccc(CSc2nc(C)cc(C)n2)cc1Cl,> 79 µM (inactive)
11,CN(C)S(=O)(=O)c1ccc(C(=O)Oc2coc(CSc3ncccn3)cc2=O)cc1,> 79 µM (inactive)
12,Cc1ccnc(SCc2cc(=O)c(OC(=O)c3ccc(S(=O)(=O)N4CCCC4)cc3)co2)n1,> 79 µM (inactive)
13,CC1(C)CC2(CC(c3ccc(Cl)cc3)c3ccc(O)cc3O2)NC(=S)N1 (stereo not given),inactive
14,CSC1=NC2(CC(c3ccccc3)c3cc(Cl)c(O)cc3O2)CC(C)(C)N1 (stereo not given),> 79 µM (inactive)
15,O=c1cc(CSc2ccccc2)occ1O,> 79 µM (inactive)
16,O=C(Oc1coc(CSc2ncccn2)cc1=O)c1ccc(Cl)cc1,> 79 µM (inactive)
17,COc1ccc(NC2C(=O)Nc3ccccc32)cc1 (stereo not given),> 79 µM (inactive)
18,CC(=O)c1ccc(N=C2C(=O)Nc3ccccc32)cc1,1.29 µM
19,Cc1ccc(NCC(=O)c2ccccc2)cc1,2.56 µM
20,O=C(Nc1nc2c(F)cc(F)cc2s1)c1ccccn1,4.52 µM
21,O=C(CNc1ccc(Br)cc1)c1ccccc1,2.66 µM
22,Cc1ccc(C)c(NCC(=O)c2ccc(Cl)cc2)c1,1.27 µM
23,Cc1ccnc(SCc2cc(=O)c(OC(=O)c3ccc([N+](=O)[O-])cc3)co2)n1,> 79 µM (inactive)
24,N#Cc1ccc(C(=O)Oc2coc(CSc3ncccn3)cc2=O)cc1,> 79 µM (inactive)
25,Cc1cccc(C2CC3(CC(C)(C)NC(=S)N3)Oc3cc(O)c(Cl)cc32)c1 (stereo not given),inactive

row,SMILES,IC50
1,Cc1cccc(C2CC3(CC(C)(C)NC(=O)N3)Oc3cc(O)c(Cl)cc32)c1 (stereo not given),> 79 µM (inactive)
2,O=C(Oc1coc(CSc2ncccn2)cc1=O)c1ccc([N+](=O)[O-])cc1,> 79 µM (inactive)
3,Cc1ccnc(SCc2cc(=O)c(OC(=O)c3ccc(F)cc3)co2)n1,> 79 µM (inactive)
4,COc1ccc(S(=O)(=O)NNc2nc(C)cc(C)n2)cc1Br,inactive
5,Cc1ccc(C(=O)CNc2ccccc2)cc1,3.37 µM
6,C=CCOc1cccc(CSc2ncccn2)c1,> 79 µM (inactive)
7,CCN(CC)S(=O)(=O)c1ccc(C(=O)Oc2coc(CSc3ncccn3)cc2=O)cc1,> 79 µM (inactive)
8,CC(C)Oc1ccc(C(=O)Oc2coc(CSc3ncccn3)cc2=O)cc1,> 79 µM (inactive)
9,O=C(Oc1coc(CSc2ncccn2)cc1=O)c1ccc(-c2ccccc2)cc1,> 79 µM (inactive)
10,FC(F)(F)c1cccc(Sc2nc(-c3ccccc3)nnc2C(F)(F)F)c1,17.9 µM
11,CC(C)N1CCc2c(sc(NC(=O)c3cc(-c4cccs4)nc4ccccc34)c2C(N)=O)C1,inactive
12,Cc1ccnc(SCc2cc(=O)c(OC(=O)c3ccc(C(F)(F)F)cc3)co2)n1,> 79 µM (inactive)
13,CCOC(=O)C1=NNC(C(=O)c2ccc(Cl)cc2)C1c1ccccc1 (stereo not given),inactive
14,Cc1cc(C)nc(NNS(=O)(=O)c2ccc(F)c(Cl)c2)n1,3.78 µM
15,Cc1cccc(C2CC3(CC(C)(C)NC(=S)N3)Oc3cc(O)cc(C)c32)c1 (stereo not given),inactive
16,O=C(Oc1coc(CSc2ncccn2)cc1=O)c1cc(Cl)ccc1[N+](=O)[O-],inactive
17,Cc1cccc(N=C2C(=O)Nc3c(Cl)cccc32)c1,3.32 µM
18,Cc1cc(C)nc(SCc2ccc(O)c(Cl)c2)n1,> 79 µM (inactive)
19,CC1(C)CC2(CC(c3ccccc3F)c3cc(Cl)c(O)cc3O2)NC(=S)N1 (stereo not given),> 79 µM (inactive)
20,COc1ccc(N=C2C(=O)Nc3ccc(C)c(Br)c32)cc1,> 79 µM (inactive)
21,Cc1ccnc(SCc2cc(=O)c(OC(=O)c3ccccc3C)co2)n1,> 79 µM (inactive)
22,Cc1c(O)ccc2c1OC1(CC2c2ccccc2Cl)CC(C)(C)NC(=S)N1 (stereo not given),> 79 µM (inactive)
23,CSc1cccc(N=C2C(=O)Nc3ccccc32)c1,5.13 µM and 8.85 µM
24,O=C(COC(=O)c1cnccn1)c1ccc(Cl)c([N+](=O)[O-])c1,9.73 µM
25,O=S(=O)(NN=Cc1ccc(-c2ccccc2Cl)o1)c1ccccc1,inactive

row,SMILES,IC50
1,O=C(CNc1cccc(Cl)c1)c1ccc(Br)cc1,3.03 µM
2,CC(=O)Oc1cc2c(cc1Cl)C(c1ccccc1Cl)CC1(CC(C)(C)NC(=S)N1)O2 (stereo not given),inactive
3,COc1ccccc1NCC(=O)c1ccc(Cl)cc1,1.93 µM and 2.19 µM
4,CC1(C)CC2(CC(c3ccccc3Cl)c3ccc(O)cc3O2)NC(=O)N1 (stereo not given),> 79 µM (inactive)
5,C=CCSC1=NC2(CC(c3ccc(C)cc3)c3c(C)cc(OC(C)=O)cc3O2)CC(C)(C)N1 (stereo not given),> 79 µM (inactive)
6,Cc1ccnc(SCc2cc(=O)c(OC(=O)c3ccco3)co2)n1,> 79 µM (inactive)
7,Cc1cccc2c1NC(=O)C2=Nc1ccc(Cl)cc1,14.3 µM
8,Cc1ccnc(SCc2cc(=O)c(OC(=O)c3cccc([N+](=O)[O-])c3)co2)n1,> 79 µM (inactive)
9,Cc1ccnc(SCc2cc(=O)c(OC(=O)c3ccc(C#N)cc3)co2)n1,> 79 µM (inactive)
10,Cc1cc(C)nc(SCc2cc(=O)c(OC(=O)c3ccc(Cl)c([N+](=O)[O-])c3)co2)n1,> 79 µM (inactive)
11,O=C1Nc2ccccc2C1=Nc1ccc(F)cc1,9.49 µM
12,Cc1ccnc(SCc2cccc(O)c2)n1,> 79 µM (inactive)
13,CCOc1ccc(N=C2C(=O)Nc3ccc(C)c(Br)c32)cc1,7.56 µM
14,Cc1ccnc(SCc2cc(=O)c(OC(=O)c3ccccc3Cl)co2)n1,> 79 µM (inactive)
15,Cc1c(C(=O)Oc2coc(CSc3ncccn3)cc2=O)cccc1[N+](=O)[O-],> 79 µM (inactive)
16,COc1ccc(C(=O)Oc2coc(CSc3ncccn3)cc2=O)cc1,> 79 µM (inactive)
17,Cc1ccc(C(=O)Oc2coc(CSc3ncccn3)cc2=O)cc1[N+](=O)[O-],> 79 µM (inactive)
18,O=C(Oc1coc(CSc2ccccc2)cc1=O)c1ccc(Cl)c([N+](=O)[O-])c1,> 79 µM (inactive)
19,Cc1ccc(N=C2C(=O)Nc3c(C)cccc32)cc1,inactive
20,CCC[N+](CC#Cc1ccccc1)(CCC)CC(=O)c1ccc(Cl)cc1,inactive
21,CC(C(=O)OCC(=O)c1cccc([N+](=O)[O-])c1)N1C(=O)C2C3C=CC(C3)C2C1=O (stereo not given),inactive
22,O=C(CNC(=O)c1ccco1)NCC(=O)OCC(=O)c1ccc(Cl)c([N+](=O)[O-])c1,4.78 µM
23,COc1cc(C(=O)Oc2coc(CSc3ncccn3)cc2=O)c([N+](=O)[O-])cc1OC,> 79 µM (inactive)
24,O=C(Oc1coc(CSc2ncccn2)cc1=O)c1ccc(S(=O)(=O)N2CCCC2)cc1,> 79 µM (inactive)
25,Cc1cc(C)nc(SCc2cc(=O)c(OC(=O)c3ccc(C)c([N+](=O)[O-])c3)co2)n1,> 79 µM (inactive)
